Data set [1] in a line: Spectral absorption characteristics of dye. It is filed as physicochemical. The following applies: comparative dyes. The text has this:
The dye for use in the present invention preferably has good fastness and also has good color hue, particularly, no tailing on the long-wave side in the absorption spectrum. […]

Data set [2] can be described thus: Oxidation potential of dye. The class given is physicochemical. The following applies: comparative dyes. The protocol:
More specifically, a test sample is dissolved to a concentration of 1×10^−4 to 1×10^−6 mol/liter in a solvent such as dimethylformamide or acetonitrile containing a supporting electrolyte such as sodium perchlorate or tetrapropylammonium perchlorate and the oxidation potential is measured as a value to SCE (saturated calomel electrode) by using a cyclic voltammetry or a direct current polarography. This value sometimes deviates on the order of tens of millivolt due to the effect of liquid junction potential, liquid resistance of sample solution, or the like, but the reproducibility of potential can be guaranteed by adding a standard sample (for example, hydroquinone).
In order to univocally specify the potential, in the present invention, the value (vs SCE) measured by a direct current polarography in a dimethylformamide (concentration of dye: 0.001 mol dm^−3) containing 0.1 mol dm^−3 of tetrapropylammonium perchlorate as the supporting electrolyte is used as the oxidation potential of the dye.

From patent US7311393B2, “Inkjet recording ink and method of inkjet recording” (Fujifilm Corporation, priority 2002, dated 2007) come the findings set out here.

Take `Cc1nn(-c2ccc(S(=O)(=O)[O-])cc2)c(O)c1/N=N/c1cccc(S(=O)(=O)Nc2cc(C(=O)[O-])cc(C(=O)[O-])c2)c1.[K+].[K+].[K+]` [Dye (C)]: in data set [1], the “I(λmax)/I(λmax+70 nm)” value is no more than 0.4. Moreover, in data set [2], the oxidation potential is listed as ≤ 1.0 V (vs SCE).

With Direct Yellow 11 [Dye (D)], the “I(λmax)/I(λmax+70 nm)” value in data set [1] is listed as greater than 0.4. Besides, the oxidation potential in data set [2] is ≤ 1.0 V (vs SCE).
